Assay results taken from ChEMBL document CHEMBL1201862, “PubChem BioAssay data set” (2004).
Active and inactive are the calls of the source.

How the values were obtained:
[1] = molecular target: T1, Sentrin-specific protease 6 (Homo sapiens, UniProt Q9GZR1); type: functional;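 further: Luminescence-based dose-response confirmatory assay of SENP6 inhibition, following up an ultra-high-throughput screen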
T1 sequence (Q9GZR1 whole entry): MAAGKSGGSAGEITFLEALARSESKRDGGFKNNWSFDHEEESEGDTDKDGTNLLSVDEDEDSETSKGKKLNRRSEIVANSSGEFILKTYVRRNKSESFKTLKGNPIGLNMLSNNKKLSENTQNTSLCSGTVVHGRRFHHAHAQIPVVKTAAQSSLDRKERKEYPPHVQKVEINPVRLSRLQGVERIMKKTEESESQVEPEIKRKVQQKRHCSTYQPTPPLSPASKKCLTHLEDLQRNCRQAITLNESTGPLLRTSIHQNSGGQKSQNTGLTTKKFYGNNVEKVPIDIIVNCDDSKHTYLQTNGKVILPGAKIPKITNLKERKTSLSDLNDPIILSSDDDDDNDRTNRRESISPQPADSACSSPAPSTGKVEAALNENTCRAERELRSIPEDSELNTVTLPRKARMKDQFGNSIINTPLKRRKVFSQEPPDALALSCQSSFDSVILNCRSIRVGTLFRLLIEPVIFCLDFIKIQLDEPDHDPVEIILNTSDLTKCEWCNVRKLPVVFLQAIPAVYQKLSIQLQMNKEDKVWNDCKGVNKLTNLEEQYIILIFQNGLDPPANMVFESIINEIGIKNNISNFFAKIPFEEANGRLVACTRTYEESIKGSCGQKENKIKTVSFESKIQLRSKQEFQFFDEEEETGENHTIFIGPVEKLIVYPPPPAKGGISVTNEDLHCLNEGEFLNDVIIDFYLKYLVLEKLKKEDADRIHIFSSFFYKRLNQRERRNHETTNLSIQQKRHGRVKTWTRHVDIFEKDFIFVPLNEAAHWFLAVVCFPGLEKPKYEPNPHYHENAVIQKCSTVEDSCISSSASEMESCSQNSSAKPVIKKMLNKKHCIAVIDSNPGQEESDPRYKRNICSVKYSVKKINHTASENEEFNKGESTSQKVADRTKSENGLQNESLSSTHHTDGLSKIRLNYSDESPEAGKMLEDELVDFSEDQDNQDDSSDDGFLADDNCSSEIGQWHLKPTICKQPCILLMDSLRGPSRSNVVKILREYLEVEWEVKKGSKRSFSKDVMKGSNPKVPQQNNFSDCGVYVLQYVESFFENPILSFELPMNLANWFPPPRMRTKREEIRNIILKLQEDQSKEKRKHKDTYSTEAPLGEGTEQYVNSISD

[2] = insulin promoter down-regulators in MIN6 cells, imaging, high-content screening, mouse beta cells (AID 1628); type: functional
[3] = cytotoxicity in MIN6 insulinoma cells, dose response, cytotoxicity control, cell-based, mouse insulinoma (AID 2122); type: functional;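 further: confirmatory high-throughput counterscreen run to flag cytotoxic compounds; mouse MIN-6 beta cells carrying an insulin promoter eGFP reporter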
[4] = molecular target: T2, Sentrin-specific protease 8 (Homo sapiens, UniProt Q96LD8); type: functional
T2 sequence (Q96LD8 whole entry): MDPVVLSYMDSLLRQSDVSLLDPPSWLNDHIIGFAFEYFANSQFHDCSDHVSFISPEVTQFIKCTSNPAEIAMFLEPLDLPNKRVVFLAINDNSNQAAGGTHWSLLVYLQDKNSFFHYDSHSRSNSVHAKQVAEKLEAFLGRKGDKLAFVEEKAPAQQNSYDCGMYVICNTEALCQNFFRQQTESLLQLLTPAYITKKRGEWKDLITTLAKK

Hexokinase HKDC1 = molecular target: T3, Hexokinase HKDC1 (Homo sapiens, UniProt Q2TB90); assay: HKDC1 hexokinase inhibitors, dose response, biochemical, W721R variant (AID 504729); type: functional
T3 sequence (Q2TB90 whole entry): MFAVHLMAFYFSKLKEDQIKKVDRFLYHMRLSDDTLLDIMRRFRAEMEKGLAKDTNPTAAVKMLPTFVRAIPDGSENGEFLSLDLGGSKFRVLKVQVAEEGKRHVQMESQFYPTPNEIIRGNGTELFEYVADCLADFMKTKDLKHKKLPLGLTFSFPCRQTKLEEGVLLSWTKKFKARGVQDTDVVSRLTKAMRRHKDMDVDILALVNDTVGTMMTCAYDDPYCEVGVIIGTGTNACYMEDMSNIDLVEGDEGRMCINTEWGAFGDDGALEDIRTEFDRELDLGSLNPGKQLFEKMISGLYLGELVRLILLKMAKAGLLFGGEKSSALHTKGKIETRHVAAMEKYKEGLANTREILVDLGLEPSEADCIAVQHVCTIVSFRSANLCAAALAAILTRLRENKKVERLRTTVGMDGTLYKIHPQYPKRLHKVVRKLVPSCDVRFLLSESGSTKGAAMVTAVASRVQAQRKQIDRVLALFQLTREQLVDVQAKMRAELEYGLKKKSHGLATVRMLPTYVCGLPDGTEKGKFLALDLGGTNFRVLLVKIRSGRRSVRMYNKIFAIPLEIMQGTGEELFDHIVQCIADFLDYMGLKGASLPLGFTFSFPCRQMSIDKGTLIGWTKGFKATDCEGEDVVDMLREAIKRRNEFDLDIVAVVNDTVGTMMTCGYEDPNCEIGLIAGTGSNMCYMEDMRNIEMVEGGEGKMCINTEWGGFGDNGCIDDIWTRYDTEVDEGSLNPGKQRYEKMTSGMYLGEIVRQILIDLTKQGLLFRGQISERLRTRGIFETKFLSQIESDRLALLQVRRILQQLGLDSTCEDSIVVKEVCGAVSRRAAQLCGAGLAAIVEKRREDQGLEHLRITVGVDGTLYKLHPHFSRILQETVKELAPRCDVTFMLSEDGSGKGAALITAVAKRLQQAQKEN

[5] = molecular target: Delta-type opioid receptor (Homo sapiens, UniProt P41143); assay: HTS Image-Based Screen for Agonists of the DOR Receptor. [Related pubchem assays (depositor defined):AID1777, AID1786, AID2133]; type: functional
Delta-type opioid receptor, sequence (P41143 whole entry): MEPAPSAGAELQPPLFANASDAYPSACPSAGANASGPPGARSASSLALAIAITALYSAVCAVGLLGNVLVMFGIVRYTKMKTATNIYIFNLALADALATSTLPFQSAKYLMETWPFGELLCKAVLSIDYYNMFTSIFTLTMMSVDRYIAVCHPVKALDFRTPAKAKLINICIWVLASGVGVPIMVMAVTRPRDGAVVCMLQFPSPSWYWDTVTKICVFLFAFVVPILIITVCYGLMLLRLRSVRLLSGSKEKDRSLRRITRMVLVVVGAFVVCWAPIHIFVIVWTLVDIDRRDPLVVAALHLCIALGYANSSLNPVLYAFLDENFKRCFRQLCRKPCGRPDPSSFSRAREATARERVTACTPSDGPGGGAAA

[6] = molecular target: Protein-tyrosine kinase 2-beta (Homo sapiens, UniProt Q14289);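 further: potency of inhibitors of PYK2 kinase phosphorylation of poly-GT substrate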
Protein-tyrosine kinase 2-beta, sequence (Q14289 whole entry): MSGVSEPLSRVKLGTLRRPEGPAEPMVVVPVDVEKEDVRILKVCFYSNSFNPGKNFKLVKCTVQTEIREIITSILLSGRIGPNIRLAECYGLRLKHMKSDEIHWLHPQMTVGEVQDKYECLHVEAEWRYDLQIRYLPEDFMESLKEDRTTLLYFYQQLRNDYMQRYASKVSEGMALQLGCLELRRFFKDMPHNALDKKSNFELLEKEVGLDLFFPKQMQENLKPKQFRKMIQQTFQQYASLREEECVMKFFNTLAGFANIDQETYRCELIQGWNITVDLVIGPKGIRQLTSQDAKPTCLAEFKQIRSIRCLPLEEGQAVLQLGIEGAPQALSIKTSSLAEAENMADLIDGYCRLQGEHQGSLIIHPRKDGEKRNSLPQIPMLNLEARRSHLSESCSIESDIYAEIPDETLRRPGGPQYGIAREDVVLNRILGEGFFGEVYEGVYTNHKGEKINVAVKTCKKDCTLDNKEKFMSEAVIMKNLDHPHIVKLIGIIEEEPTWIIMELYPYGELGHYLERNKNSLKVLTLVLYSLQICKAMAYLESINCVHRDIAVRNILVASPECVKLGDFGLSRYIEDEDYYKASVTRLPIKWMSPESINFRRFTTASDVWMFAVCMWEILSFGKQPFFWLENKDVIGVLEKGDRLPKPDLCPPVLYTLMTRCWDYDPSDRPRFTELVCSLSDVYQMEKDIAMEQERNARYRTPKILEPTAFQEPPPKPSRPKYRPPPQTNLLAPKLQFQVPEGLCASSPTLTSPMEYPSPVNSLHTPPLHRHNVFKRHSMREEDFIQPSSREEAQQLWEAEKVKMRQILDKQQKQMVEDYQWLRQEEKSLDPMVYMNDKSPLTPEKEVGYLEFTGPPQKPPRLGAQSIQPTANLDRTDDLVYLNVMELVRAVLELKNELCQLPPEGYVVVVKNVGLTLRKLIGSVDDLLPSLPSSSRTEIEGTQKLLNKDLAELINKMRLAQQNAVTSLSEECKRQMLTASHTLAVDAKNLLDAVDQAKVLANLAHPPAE

[7] = cytotoxicity toward DRD oncogenic fibroblasts, dose response, cell-based, non-viral oncogenic, luminescence (AID 1934); type: functional; settings: Homo sapiens
Keap1/Nrf2 = Keap1/Nrf2 (Homo sapiens, UniProt Q14145); assay: Keap1-Nrf2 protein-protein interaction inhibitors, dose response, biochemical, fluorescence polarization, cherry-picked samples (AID 588683)
Keap1/Nrf2, sequence (Q16236 whole entry): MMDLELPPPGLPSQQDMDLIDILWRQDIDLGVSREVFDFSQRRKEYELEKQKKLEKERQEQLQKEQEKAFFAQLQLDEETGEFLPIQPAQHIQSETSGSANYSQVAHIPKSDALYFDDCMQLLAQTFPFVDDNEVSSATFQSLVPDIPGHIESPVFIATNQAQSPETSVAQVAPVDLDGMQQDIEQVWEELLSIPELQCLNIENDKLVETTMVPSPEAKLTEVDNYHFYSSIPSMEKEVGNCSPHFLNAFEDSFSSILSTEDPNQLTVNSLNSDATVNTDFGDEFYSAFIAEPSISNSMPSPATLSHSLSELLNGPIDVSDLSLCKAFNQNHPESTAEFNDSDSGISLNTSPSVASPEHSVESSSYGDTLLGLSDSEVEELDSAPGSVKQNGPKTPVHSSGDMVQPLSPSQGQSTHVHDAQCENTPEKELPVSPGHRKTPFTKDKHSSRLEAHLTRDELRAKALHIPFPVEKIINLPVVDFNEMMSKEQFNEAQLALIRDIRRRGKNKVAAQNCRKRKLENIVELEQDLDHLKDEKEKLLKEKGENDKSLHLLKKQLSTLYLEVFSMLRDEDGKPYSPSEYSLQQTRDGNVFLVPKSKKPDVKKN
Keap1/Nrf2, sequence (Q14145 whole entry): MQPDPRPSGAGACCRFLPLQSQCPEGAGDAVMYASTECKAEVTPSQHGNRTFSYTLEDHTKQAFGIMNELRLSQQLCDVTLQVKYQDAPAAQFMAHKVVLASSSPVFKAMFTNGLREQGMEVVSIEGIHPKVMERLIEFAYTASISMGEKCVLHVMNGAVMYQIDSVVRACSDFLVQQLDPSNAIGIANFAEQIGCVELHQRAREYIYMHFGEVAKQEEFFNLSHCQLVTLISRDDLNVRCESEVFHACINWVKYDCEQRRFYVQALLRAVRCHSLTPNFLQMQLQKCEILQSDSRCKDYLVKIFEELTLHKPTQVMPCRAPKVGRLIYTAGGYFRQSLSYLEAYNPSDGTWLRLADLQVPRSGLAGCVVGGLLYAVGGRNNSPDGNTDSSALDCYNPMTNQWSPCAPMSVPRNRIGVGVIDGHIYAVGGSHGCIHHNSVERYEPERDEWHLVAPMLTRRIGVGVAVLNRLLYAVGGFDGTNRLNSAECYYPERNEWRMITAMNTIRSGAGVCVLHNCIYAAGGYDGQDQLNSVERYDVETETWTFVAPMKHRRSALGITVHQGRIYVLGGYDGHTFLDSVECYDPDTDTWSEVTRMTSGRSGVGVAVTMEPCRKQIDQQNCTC

With `CCCCn1c(NC(=O)c2ccccc2Cl)c(C#N)c2nc3ccccc3nc21` the IC50 [1] was 0.986 µM (active).
With `O=C1C=C(N(CCO)Cc2ccccc2)c2ccccc2C1=O` the IC50 [2] was 5.11 µM (active) and the IC50 [3] was 3.71 µM (active).
For `CCc1ccc(OCC(=O)N/N=C2\CC(=O)c3ccccc32)cc1`, the IC50 [1] was 4.06 µM (active).
For `O=C1c2cc(F)ccc2-n2c1nc1ccccc1c2=O`, the IC50 [4] was 0.962 µM (active).
In the case of `CCOC(=O)C1=C(c2ccc(OC)cc2)C(=O)c2ccccc2C1=O`, the IC50 (Hexokinase HKDC1) is reported as 2.32 µM (active).
With `CCC(=O)OCCNc1cc(Sc2nccn2C)c2nonc2c1[N+](=O)[O-]` the EC50 [5] was > 32 µM (inactive).
In the case of `O=C1C(=O)c2ccccc2-c2ccccc21` [9,10-PHENANTHRENEQUINONE], the IC50 [6] is reported as > 69.5 µM (not active) and the EC50 [7] is reported as 4.95 µM (inconclusive).
With `COCCCNC(=O)c1ccc2c3c(onc13)-c1ccccc1C2=O` the EC50 [7] was 8.59 µM (active) and the AC50 (Keap1/Nrf2) was 1.73 µM (active).
